Test results published in ChEMBL document CHEMBL4431301, “The Medicinal Chemistry of Dengue Virus” (J Med Chem, 2016).
Where a SMILES comes first, the peptide text is derived from it. [ ]: non-standard residue; d: D form. The star is where a group is joined. Nle = CCCC[C@H](N)C(=O)O; Bz = O=C(c1ccccc1)*

Tests used:
[1] = target: Genome polyprotein (dengue virus type 2, UniProt P29990); assay: Inhibition of Dengue virus 2 NS2B-NS3 protease using Abz-Nle-Lys-Arg-Arg-Ser-3-(NO2)Tyr as substrate preincubated for 15 mins followed by addition of substrate measured after 15 mins by fluorescence assay
[2] = test system: dengue virus type 2; assay: Antiviral activity against Dengue virus 2 NGC infected in BHK21 cells after 24 hrs by plaque reduction assay; assay type: functional; conditions: BHK-21, 24 h
[3] = Cytotoxicity against BHK21 cells after 1 hr by alamar blue assay; assay type: cell-based, Mesocricetus auratus, BHK-21; conditions: hamster
[4] = test system: dengue virus type 2; assay: Antiviral activity against Dengue virus 2 NGC infected in human HuH7 cells assessed as reduction in viral titer after 24 hrs; assay type: functional; conditions: Huh-7, 24 h
[5] = test system: dengue virus type 2; assay: Antiviral activity against Dengue virus 2 NGC infected in human A549 cells assessed as reduction in virus replication after 48 hrs by renilla luciferase reporter gene assay; assay type: functional, organism-based; conditions: A549, 48 h
[6] = test system: dengue virus type 2; assay: Antiviral activity against Dengue virus 2 NGC infected in BHK21 cells after 48 hrs by plaque reduction assay; assay type: functional, organism-based; conditions: BHK-21, 48 h
[7] = test system: dengue virus type 2; assay: Antiviral activity against Dengue virus 2 NGC infected through intraperitoneal route in AG129 mouse assessed as reduction of viral load in liver at 50 mg/kg, ip bid measured on day 3 by plaque assay relative to vehicle-treated control; assay type: functional
[8] = test system: dengue virus type 2; assay: Antiviral activity against Dengue virus 2 NGC infected through intraperitoneal route in AG129 mouse assessed as reduction of viral load in spleen at 50 mg/kg, ip bid measured on day 3 by plaque assay relative to vehicle-treated control; assay type: functional
[9] = Oral bioavailability in AG129 mouse plasma at 50 mg/kg/day after 1 to 24 hrs by LC-MS/MS; assay type: ADME, organism-based
[10] = test system: dengue virus type 2; assay: Antiviral activity against Dengue virus 2 NGC infected in african green monkey Vero cells assessed as reduction in viral titer after 48 hrs by plaque assay; assay type: functional, organism-based
[11] = test system: dengue virus type 2; assay: Antiviral activity against Dengue virus 2 NGC infected through intraperitoneal route in AG129 mouse assessed as reduction in peak plasma viremia at 50 mg/kg, ip bid measured on day 3 by plaque assay relative to vehicle-treated control; assay type: functional
[12] = test system: dengue virus type 2; assay: Antiviral activity against Dengue virus 2 3295 infected in BHK21 cells after 48 hrs by CFI assay; assay type: functional, organism-based; conditions: Dengue virus, 3295, BHK-21, 48 h
[13] = test system: dengue virus type 2; assay: Antiviral activity against Dengue virus 2 NGC infected in human K562 cells assessed as inhibition in live viral replication after 48 hrs by plaque assay; assay type: functional, organism-based; conditions: K562, 48 h
[14] = test system: dengue virus type 2; assay: Antiviral activity against Dengue virus 2 infected in BHK21 cells assessed as reduction in virus replication after 72 hrs by renilla luciferase reporter gene assay; assay type: functional, organism-based; conditions: BHK-21, 72 h
[15] = Selectivity index, ratio of CC50 for BHK21 cells to EC50 for Dengue virus 2 infected in BHK21 cells; assay type: toxicity, cell-based; conditions: hamster, read-out: Ratio CC50/EC50
[16] = test system: dengue virus type 1; assay: Antiviral activity against Dengue virus 1 TH-Sman VR-344 infected in african green monkey Vero cells assessed as reduction in viral titer after 48 hrs by plaque assay; assay type: functional, organism-based; conditions: TH-Sman VR-344, Vero
[17] = test system: dengue virus type 4; assay: Antiviral activity against Dengue virus 4 H241 VR-1257 infected in african green monkey Vero cells assessed as reduction in viral titer after 48 hrs by plaque assay; assay type: functional, organism-based; conditions: H241 VR-1257, Vero
[18] = test system: dengue virus type 3; assay: Antiviral activity against Dengue virus 3 H87 VR-1256 infected in african green monkey Vero cells assessed as reduction in viral titer after 48 hrs by plaque assay; assay type: functional, organism-based; conditions: H87 VR-1256, Vero
[19] = test system: dengue virus type 2; assay: Antiviral activity against Dengue virus 2 NGC VR-1255 infected in african green monkey Vero cells assessed as reduction in viral titer after 48 hrs by plaque assay; assay type: functional, organism-based; conditions: NGC VR-1255, Vero
[20] = test system: dengue virus type 2; assay: Antiviral activity against Dengue virus 2 16681 infected in human HuH7 cells after 72 hrs by indirect immunofluorescent flow cytometry; assay type: functional, organism-based; conditions: Dengue virus, 16681, Huh-7, 72 h
[21] = test system: Junin virus; assay: Antiviral activity against Junin virus IV4454 infected in african green monkey Vero cells assessed as inhibition of viral yield after 48 hrs; assay type: functional, organism-based; conditions: Mammarenavirus juninense
[22] = test system: dengue virus type 3; assay: Antiviral activity against Dengue virus 3 H87 infected in african green monkey Vero cells assessed as inhibition of viral yield after 48 hrs; assay type: functional, organism-based
[23] = test system: dengue virus type 1; assay: Antiviral activity against Dengue virus 1 Hawaii infected in african green monkey Vero cells assessed as inhibition of viral yield after 48 hrs; assay type: functional, organism-based
[24] = test system: dengue virus type 2; assay: Antiviral activity against Dengue virus 2 NGC infected in african green monkey Vero cells assessed as inhibition of viral yield after 48 hrs; assay type: functional, organism-based
[25] = test system: dengue virus type 2; assay: Antiviral activity against Dengue virus 2 assessed as inhibition of viral replication; assay type: functional, organism-based

Chain of Genome polyprotein (P29990 1346-1475 limits assumed): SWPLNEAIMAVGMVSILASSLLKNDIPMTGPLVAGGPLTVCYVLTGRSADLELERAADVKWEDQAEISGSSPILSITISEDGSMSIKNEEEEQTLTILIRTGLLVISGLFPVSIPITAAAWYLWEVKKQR
Chain of Genome polyprotein (P29990 1476-2093 limits assumed): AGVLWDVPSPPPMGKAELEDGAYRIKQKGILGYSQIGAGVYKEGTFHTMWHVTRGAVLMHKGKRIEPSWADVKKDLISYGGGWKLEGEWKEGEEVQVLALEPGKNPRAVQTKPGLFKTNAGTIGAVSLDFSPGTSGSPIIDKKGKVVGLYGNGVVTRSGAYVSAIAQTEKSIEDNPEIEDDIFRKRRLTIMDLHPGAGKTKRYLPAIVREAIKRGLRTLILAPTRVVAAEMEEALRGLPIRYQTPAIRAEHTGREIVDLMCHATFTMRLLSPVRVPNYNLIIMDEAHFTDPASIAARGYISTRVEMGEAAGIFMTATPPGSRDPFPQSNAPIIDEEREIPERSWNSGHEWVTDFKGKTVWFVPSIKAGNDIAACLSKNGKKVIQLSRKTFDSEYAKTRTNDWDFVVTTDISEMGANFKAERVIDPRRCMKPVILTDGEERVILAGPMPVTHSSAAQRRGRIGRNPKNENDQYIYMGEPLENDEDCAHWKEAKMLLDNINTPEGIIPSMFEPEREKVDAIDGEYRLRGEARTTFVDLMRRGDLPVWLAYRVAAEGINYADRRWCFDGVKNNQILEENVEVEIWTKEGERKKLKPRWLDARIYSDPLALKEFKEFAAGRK

CCCC[C@H](NC(=O)[C@H](CCCCN)NC(=O)[C@H](CCCNC(=N)N)NC(=O)c1ccccc1)C(N)=O (Bz-Arg-Lys-[Nle]-NH2) showed a Ki [1] of 15.6 µM.
N#C/C(=N\Nc1ccc(C(F)(F)F)cc1)C(=O)c1ccco1 gave an IC90 [2] of 1500 nM and a CC50 at 1 h [3] of 84.5 µM.
CN1CCN(CCOc2cc(OC3CCOCC3)c3c(Nc4c(Cl)ccc5c4OCO5)ncnc3c2)CC1 [SARACATINIB] gave an EC90 [4] of 12.2 µM.
Compound CC[C@H](C)C(=O)O[C@H]1C[C@@H](C)C=C2C=C[C@H](C)[C@H](CC[C@@H]3C[C@@H](O)CC(=O)O3)[C@H]21 [LOVASTATIN] has an EC50 [5] of 1.82 to 8.75 µM.
Compound CCCCCCCCCN1C[C@H](O)[C@@H](O)[C@H](O)[C@H]1CO has an EC50 [6] of 1000 nM.
Cc1nc(Nc2ncc(C(=O)Nc3c(C)cccc3Cl)s2)cc(N2CCN(CCO)CC2)n1 [DASATINIB] showed an EC90 [4] of 4.7 µM.
For Nc1c(C(=O)Nc2nnc(-c3ccccc3)s2)sc2nc3c(cc12)CCCCC3, the “fold change (FC)” value [7] was 20, the “fold change (FC)” value [8] was 3 and the bioavailability [9] was 9.1%. For the same compound, the EC50 [10] was 16 nM, the EC90 [10] was 125 nM and the “fold change (FC)” value [11] was 52.
Work on CCC(C)(C)C(=O)O[C@H]1C[C@@H](C)C=C2C=C[C@H](C)[C@H](CC[C@@H]3C[C@@H](O)CC(=O)O3)[C@H]21 [SIMVASTATIN] yielded an EC50 [5] of 1.82 to 8.75 µM.
For OC[C@@H]1[C@@H](O)[C@H](O)[C@@H](O)CN1CCCCCC1(O)CCCCC1, the EC50 [6] was 2000 nM.
Work on O[C@H]1[C@H](O)[C@@H](O)CN2CC[C@H](O)[C@H]12 [CASTANOSPERMINE] yielded an EC50 [12] of 28 µM.
In the case of C=C(CC[C@]12O[C@H](C(=O)O)[C@@](O)(C(=O)O)[C@](C(=O)O)(O1)[C@H](OC(=O)/C=C/[C@@H](C)C[C@@H](C)CC)[C@H]2O)[C@@H](OC(C)=O)[C@H](C)Cc1ccccc1 [ZARAGOZIC ACIDS A], the EC50 [13] is reported as 8.3 µM.
CC[C@H](C)C(=O)O[C@H]1CCC=C2C=C[C@H](C)[C@H](CC[C@@H]3C[C@@H](O)CC(=O)O3)[C@H]21 [MEVASTATIN] gave an EC50 [5] of 1.82 to 8.75 µM.
For Cc1cc(N2C(=O)C(O)=C(C(=O)c3ccc(C)o3)C2c2cc(Cl)cc(Cl)c2)no1 (stereo not given), the EC50 [14] was 36 µM and the selectivity ratio [15] was 4.5.
For NC(=O)C1(N2CCCCC2)CCN(C(=O)CSc2nc3ccccc3o2)CC1, the EC50 [16] was 203 to 272 nM, the EC50 [17] was 203 to 272 nM and the EC50 [18] was 203 to 272 nM. For the same compound, the EC50 [19] was 203 to 272 nM.
COc1c(C)c2c(c(O)c1C/C=C(\C)CCC(=O)O)C(=O)OC2 [MYCOPHENOLIC ACID] gave an EC50 [20] of 1900 nM.
For C=CCn1c2ccccc2c(=O)c2ccc(Cl)cc21, the EC50 [21] was 2.5 to 5.5 µM, the EC50 [22] was 8.3 to 15.9 µM and the EC50 [23] was 8.3 to 15.9 µM. It also gave an EC50 [24] of 2.5 to 5.5 µM.
With CC(C)(C)OC(=O)NC1C(=O)NC2Cc3ccc(c(Cl)c3)Oc3cc4cc(c3O)Oc3ccc(cc3Cl)C(O)C3NC(=O)C(NC(=O)C4NC(=O)C(NC2=O)c2cc(O)cc(c2)Oc2cc1ccc2O)c1ccc(O)c(c1)-c1c(O)cc(O)cc1C(C(=O)NC12CC4CC(CC(C4)C1)C2)NC3=O (stereo not given) the EC50 [25] was 6.9 µM.
